Measurements from patent US20060236430A1, “Methods and compositions for producing male sterile plants” (priority 2003, published 2006).
Entries after “also recorded” stand apart in the source; their conditions may differ. Blank lines part the entries; values can stand above or below the molecule they belong to.

Experiments:
[1] = tested on: transgenic Nicotiana tabacum plants (line 7) expressing AtST2a; experiment: Normalization experiment: restoring normal anther development in male sterile transgenic tobacco expressing AtST2a; assay type: in vivo; conditions: for restoration of the male sterile phenotype by exogenous application: transgenic tobacco overexpressing AtST2a, concentration not given
Description: The apex of T2 plants of line 7 was soaked daily in a solution containing either: 0.05% Tween20 in water (control), 0.05% Tween20 in water containing 50 μM MeJA or 0.05% Tween20 in water containing 100 μM 12-OHJA. The treatments were started approximately 7 days before the appearance of the first flower buds and lasted a total of 14 days. A minimum of 5 plants for each treatment were analyzed in this study.
In order to restore the phenotype, the apex of transgenic plants were soaked daily for 2 minutes in a solution containing 100 μM 12-OHJA dissolved in aqueous 0.05% TWEEN20. The application was started approximately 7 days prior to the appearance of the first flower bud and was continued for 7 days after the first flower appeared.

[2] = tested on: A. thaliana opr3 mutant deficient in JA biosynthesis; experiment: Restoring the male sterile phenotype of the opr3 mutant by exogenous application to the inflorescence; assay type: in vivo, Arabidopsis thaliana; conditions: data not shown
[3] = biological target: T1, hydroxyjasmonic acid sulfotransferase encoded by the AtST2a gene (Arabidopsis thaliana, UniProt Q8L5A7); experiment: Substrate specificity and kinetics of the AtST2a hydroxyjasmonic acid sulfotransferase; assay type: biochemical; conditions: structurally related compounds
T1 sequence (Q8L5A7 1-359): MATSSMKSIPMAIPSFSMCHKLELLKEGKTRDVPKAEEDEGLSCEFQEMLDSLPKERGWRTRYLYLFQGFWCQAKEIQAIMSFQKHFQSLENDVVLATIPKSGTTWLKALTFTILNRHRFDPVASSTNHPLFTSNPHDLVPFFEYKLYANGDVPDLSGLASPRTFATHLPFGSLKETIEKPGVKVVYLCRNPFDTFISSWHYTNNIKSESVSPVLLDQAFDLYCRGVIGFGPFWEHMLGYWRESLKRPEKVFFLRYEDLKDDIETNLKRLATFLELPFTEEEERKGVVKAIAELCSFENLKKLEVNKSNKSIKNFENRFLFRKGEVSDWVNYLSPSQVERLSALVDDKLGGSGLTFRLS
Excerpt: (§1) SEQ ID NO 1 (FIG. 6; GenBank®: accession number NM_120783) corresponds to the gene AtST2a in Arabidopsis thaliana. SEQ ID NO 3 (FIG. 7) is an amino acid sequence deduced from SEQ ID NO 1. This amino acid sequence is of public domain and can be retrieved from GenBank®, accession number NM_120783. The AtST2a gene from Arabidopsis thaliana encodes a sulfotransferase that sulfonates 12-OHJA and 11-OHJA with high specificity.

[4] = substrate: CC(O)C=CCC1C(=O)CCC1CC(=O)O; experiment: as above; assay type: biochemical, Arabidopsis thaliana; conditions: other: as substrate of the sulfotransferase; pH 7.5
Excerpt: as §1

[5] = substrate: O=C(O)CC1CCC(=O)C1CC=CCCO; experiment: as above; assay type: biochemical, Arabidopsis thaliana; conditions: other: as substrate of the sulfotransferase; pH 7.5
Excerpt: as §1

Molecule: O=C(O)CC1CCC(=O)C1CC=CCCO (stereo not drawn) [12-OHJA, 3-Oxo-2-(5-hydroxy-2-pentenyl)-cyclopentane-1-acetic acid]
restoration of normal anther development ([1]; 100 μM in aqueous 0.05% TWEEN20, apex of line 7 soaked daily for 2 minutes, 14 days): restoration of the mutant phenotype; also recorded: restored normal anther development
production of viable pollen ([1]; apex of transgenic plants treated for 14 days (FIG. 5)): production of viable pollen
restoration of the male sterile phenotype by exogenous application [1]: could be restored
restoration of the male sterile phenotype [2]: restore the male sterile phenotype

Molecule: CC/C=C\C[C@H]1C(=O)CC[C@@H]1CC(=O)O [JA, jasmonic acid]
restoration of the male sterile phenotype by exogenous application [1]: could be restored

acceptance as substrate by the enzyme [3]: did not accept
Molecule: CCCCC/C=C\C/C=C\C/C=C\C/C=C\CCCCO [arachidonyl alcohol]

acceptance as substrate by the enzyme [3]: did not accept
Molecule: CC/C=C/CC1C(O)CCC1CC(=O)O (stereo not drawn) [cucurbic acid]

B1: hydroxyjasmonic acid sulfotransferase encoded by the AtST2a gene (Arabidopsis thaliana) (protein)
chain: T1 sequence (Q8L5A7 1-359)
Km [4]: 60 µM
Km [5]: 11 µM
